Five substances from patent US9833497B2, “Human originated EGF domain proteins and use of the same” (CHENGDU SOURCEBIO LIMITED-LIABILITY COMPANY, priority 2013, dated 2017) can be followed below.

Type in all cases: cell-based
The test system of one assay is Pseudomonas aeruginosa. In words: MIC against Gram-negative bacteria: Pseudomonas aeruginosa. To be noted: 5×10^5 CFU/mL, 10 h cultivation at 37° C.; for MIC against P. aeruginosa: Pseudomonas aeruginosa. In outline: (§1)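 Bacteria grown in LB at 37° C with shaking to McFarland 0.5, pelleted and resuspended in fresh LB, then seeded at 5×10^5 CFU/mL per well. Purified recombinant human EGF domain proteins were two-fold serially diluted in triplicate and plates shaken at 37° C, 175 rpm. MIC is the lowest protein concentration with no bacterial growth.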

The subject of the next assay is E. coli DH5α. In words: Antibacterial activity: MIC and growth curve against E. coli DH5α in 96-well plate. To be noted: minimal inhibitory concentration against E. coli DH5α; 96-well plate, 5×10^5 CFU/mL, 37° C., judged after 8 h. The method, boiled down:
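Log-phase bacteria (OD600 ~0.5) resuspended in LB at 5×10^5 CFU/mL, exposed to recombinant protein at 50, 25, 12.5 μg/mL final in triplicate, 37 °C shaking at 175 rpm. OD600 read every 30 min; MIC is lowest concentration showing no growth.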

The next assay concerns Citrobacter diversus. Put plainly: MIC against Gram-negative bacteria: Citrobacter diversus. To be noted: 5×10^5 CFU/mL, 10 h cultivation at 37° C.; for MIC against C. diversus: Citrobacter diversus. In outline:
as §1

Another assay deals with Serratia marcescens. Put plainly: MIC against Gram-negative bacteria: Serratia marcescens. To be noted: 5×10^5 CFU/mL, 10 h cultivation at 37° C.; for MIC against S. marcescens: Serratia marcescens. The method, boiled down:
as §1

A further assay deals with E. coli BL21. In words: MIC against Gram-negative bacteria: E. coli BL21. Conditions: 5×10^5 CFU/mL, 10 h cultivation at 37° C. In outline:
as §1

For the next assay, the system named is Proteus mirabilis. Put plainly: MIC against Gram-negative bacteria: Proteus mirabilis. To be noted: 5×10^5 CFU/mL, 10 h cultivation at 37° C.; for MIC against P. mirabilis: Proteus mirabilis. The method, boiled down:
as §1

A further assay has as its system Klebsiella pneumonia. Put plainly: MIC against Gram-negative bacteria: Klebsiella pneumonia. Conditions: 5×10^5 CFU/mL, 10 h cultivation at 37° C.; for MIC against K. pneumonia: Klebsiella pneumonia. The method, boiled down:
as §1

The next assay has as its system Moraxella catarrhalis. Put plainly: MIC against Gram-negative bacteria: Moraxella catarrhalis. To be noted: 5×10^5 CFU/mL, 10 h cultivation at 37° C.; for MIC against M. catarrhalis: Moraxella catarrhalis. The method, boiled down: as §1
The next assay has as its system Proteus vulgaris. In words: MIC against Gram-negative bacteria: Proteus vulgaris. To be noted: 5×10^5 CFU/mL, 10 h cultivation at 37° C.; for MIC against P. vulgaris: Proteus vulgaris. The method, boiled down: as §1
In the next assay the test system is Enterobacter cloacae. In words: MIC against Gram-negative bacteria: Enterobacter cloacae. Conditions: 5×10^5 CFU/mL, 10 h cultivation at 37° C.; for MIC against E. cloacae: Enterobacter cloacae. The method, boiled down:
as §1

The test system of a further assay is Aeromonas hydrophila. Put plainly: MIC against Gram-negative bacteria: Aeromonas hydrophila. To be noted: 5×10^5 CFU/mL, 10 h cultivation at 37° C.; for MIC against A. hydrophila: Aeromonas hydrophila. In outline:
as §1

“PRT1364 (GELKCPNGCSGHGRCVNGQCVCDEGYTGEDCS; listed as Homo sapiens)”: the “MIC against P. aeruginosa” value against Pseudomonas aeruginosa is 25 µg/mL. In addition, the MIC (as a rule, the least concentration at which growth counts as inhibited) in the assay with E. coli DH5α came out at 25 µg/mL. Moreover, the “MIC against C. diversus” value against Citrobacter diversus worked out at 12.5 µg/mL. Besides, the “MIC against S. marcescens” value with Serratia marcescens is 12.5 µg/mL. Besides, in the assay with E. coli BL21, the “MIC against E. coli BL21” value was determined as 12.5 µg/mL. Also, the “MIC against P. mirabilis” value against Proteus mirabilis came to 12.5 µg/mL. Besides, in the assay with Klebsiella pneumonia, the “MIC against K. pneumonia” value was 50 µg/mL. Further, in the assay on Moraxella catarrhalis, the “MIC against M. catarrhalis” value was 12.5 µg/mL. In addition, the “MIC against P. vulgaris” value in the assay on Proteus vulgaris amounted to 12.5 µg/mL. The “MIC against E. cloacae” value against Enterobacter cloacae is 25 µg/mL. Also, the “MIC against A. hydrophila” value in the assay with Aeromonas hydrophila is 25 µg/mL.

For the substance “PRT1480 (PGPCDSQPCQNGGTCVPEGLDGYQCLCPLAFGGEANCA; listed as Homo sapiens)”, the “MIC against P. aeruginosa” value in the assay on Pseudomonas aeruginosa stood at 25 µg/mL. The MIC with E. coli DH5α turned out to be 50 µg/mL. Moreover, the “MIC against C. diversus” value against Citrobacter diversus was determined as 25 µg/mL. The “MIC against S. marcescens” value against Serratia marcescens worked out at 50 µg/mL. Besides, in the assay with E. coli BL21, the “MIC against E. coli BL21” value was 12.5 µg/mL. Further, in the assay with Proteus mirabilis, the “MIC against P. mirabilis” value came out at 50 µg/mL. Moreover, the “MIC against K. pneumonia” value against Klebsiella pneumonia was 12.5 µg/mL. Further, the “MIC against M. catarrhalis” value with Moraxella catarrhalis stood at 12.5 µg/mL. For the same substance, in the assay with Proteus vulgaris, the “MIC against P. vulgaris” value is 12.5 µg/mL. Further, the “MIC against E. cloacae” value against Enterobacter cloacae came to 25 µg/mL. In addition, in the assay on Aeromonas hydrophila, the “MIC against A. hydrophila” value was 12.5 µg/mL.

In the case of “PRT1082 (GTNPCSVNNGDCSQLCLPTSETTRSCMCTAGYSLRSGQQACE; listed as Homo sapiens)”, the “MIC P. aeruginosa” value in the assay with Pseudomonas aeruginosa (two-fold serial dilution) was 25 µg/mL. For the same substance, the MIC in the assay on E. coli DH5α worked out at 50 µg/mL. In addition, the “MIC C. diversus” value in the assay with Citrobacter diversus (two-fold serial dilution) worked out at 25 µg/mL. Further, the “MIC S. marcescens” value against Serratia marcescens (two-fold serial dilution) is 25 µg/mL. For the same substance, in the assay with E. coli BL21 (two-fold serial dilution), the “MIC E. coli BL21” value was 12.5 µg/mL. For the same substance, in the assay with Proteus mirabilis (two-fold serial dilution), the “MIC P. mirabilis” value worked out at 25 µg/mL. For the same substance, in the assay with Klebsiella pneumonia (two-fold serial dilution), the “MIC K. pneumonia” value is 50 µg/mL. For the same substance, the “MIC M. catarrhalis” value in the assay on Moraxella catarrhalis (two-fold serial dilution) stood at 50 µg/mL. For the same substance, the “MIC P. vulgaris” value with Proteus vulgaris (two-fold serial dilution) amounted to 12.5 µg/mL. For the same substance, the “MIC E. cloacae” value against Enterobacter cloacae (two-fold serial dilution) was determined as 25 µg/mL. Further, in the assay on Aeromonas hydrophila (two-fold serial dilution), the “MIC A. hydrophila” value stood at 12.5 µg/mL.

Turning to “PRT785 (IHTCNCHNGAFCSAYDGECKCTPGWTGLYCT; listed as Homo sapiens)”, the “MIC (μg/mL) P. aeruginosa” value against Pseudomonas aeruginosa came to 25 µg/mL. Further, in the assay on E. coli DH5α, the minimal inhibitory concentration (MIC) worked out at 25 µg/mL. The “MIC (μg/mL) C. diversus” value in the assay on Citrobacter diversus came to 12.5 µg/mL. For the same substance, the “MIC (μg/mL) S. marcescens” value against Serratia marcescens amounted to 50 µg/mL. The “MIC (μg/mL) E. coli BL21” value in the assay with E. coli BL21 is 50 µg/mL. For the same substance, the “MIC (μg/mL) P. mirabilis” value in the assay with Proteus mirabilis was determined as 50 µg/mL. For the same substance, the “MIC (μg/mL) K. pneumonia” value with Klebsiella pneumonia is 25 µg/mL. The “MIC (μg/mL) M. catarrhalis” value against Moraxella catarrhalis worked out at 25 µg/mL. In addition, the “MIC (μg/mL) P. vulgaris” value against Proteus vulgaris is 25 µg/mL. In addition, the “MIC (μg/mL) E. cloacae” value with Enterobacter cloacae was found to be 12.5 µg/mL. The “MIC (μg/mL) A. hydrophila” value in the assay with Aeromonas hydrophila turned out to be 50 µg/mL.

As for “PRT839 (DVDECRLGLARCHPRATCLNTPLSYECHCQRGYQGDGISHCN; listed as Homo sapiens)”, the “MIC (μg/mL) P. aeruginosa” value with Pseudomonas aeruginosa turned out to be 12.5 µg/mL. Also, the MIC in the assay on E. coli DH5α is 12.5 µg/mL. Besides, the “MIC (μg/mL) C. diversus” value against Citrobacter diversus was determined as 25 µg/mL. In addition, the “MIC (μg/mL) S. marcescens” value against Serratia marcescens was found to be 50 µg/mL. Moreover, in the assay on E. coli BL21, the “MIC (μg/mL) E. coli BL21” value amounted to 25 µg/mL. Moreover, in the assay with Proteus mirabilis, the “MIC (μg/mL) P. mirabilis” value is 25 µg/mL. Moreover, the “MIC (μg/mL) K. pneumonia” value against Klebsiella pneumonia was 12.5 µg/mL. Also, in the assay on Moraxella catarrhalis, the “MIC (μg/mL) M. catarrhalis” value is 50 µg/mL. Moreover, in the assay with Proteus vulgaris, the “MIC (μg/mL) P. vulgaris” value was found to be 12.5 µg/mL. Also, in the assay with Enterobacter cloacae, the “MIC (μg/mL) E. cloacae” value worked out at 12.5 µg/mL. For the same substance, the “MIC (μg/mL) A. hydrophila” value with Aeromonas hydrophila amounted to 12.5 µg/mL.
